Article PMC7822874, “Chemoprotective antimalarials identified through quantitative high-throughput screening of Plasmodium blood and liver stage parasites” (Scientific Reports, 2021)
Like-named read-outs stand apart in the source and are kept apart here.

How the values were obtained:
Type in all cases: cell-based, Plasmodium falciparum
[1] = system: P. falciparum Dd2 Cytb F123L; experiment: SYBR Green ABS proliferation assay, NCGC00473217 selected clone G08; conditions: for AC50: Plasmodium falciparum
Procedure, shortened: (§1)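 Drug-selected Dd2 clones bearing the cytochrome b mutation were cultured at 37 °C under 5% CO2, 5% O2, 90% N2. Growth was read at 72 h by SYBR Green-I fluorescence, normalized to controls as percent response.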

[2] = system: P. falciparum Dd2 (clone B2) asexual blood stage parasites; experiment: P. falciparum Dd2 asexual blood stage SYBR Green-I 72 h proliferation assay (qHTS); conditions: Plasmodium falciparum
[3] = system: P. falciparum Dd2 Cytb A122D; experiment: SYBR Green ABS proliferation assay, NCGC00473217 selected clone F12; conditions: for AC50: Plasmodium falciparum
Procedure, shortened: as §1

[4] = system: P. falciparum Dd2 Cytb V259L; experiment: SYBR Green ABS proliferation assay, NCGC00473217 selected clone F06; conditions: for AC50: Plasmodium falciparum
Procedure, shortened: as §1

[5] = system: P. falciparum Dd2 Cytb G131S; experiment: SYBR Green ABS proliferation assay, NCGC00374598 selected clone C11; conditions: for AC50: Plasmodium falciparum
Procedure, shortened: as §1

[6] = DD2, […], averaged from three independent replicates, top concentration 29 µM, read-out: Average AC50 (Log[M]), NCGC00473217 clone G08 (Cytb F123L) (converted)
[7] = DD2, Dd2 parental, Hill fit, averaged from three independent replicates, top concentration 29 µM, read-out: Average AC50 (Log[M]), Dd2 (converted)
[8] = DD2, […], averaged from three independent replicates, top concentration 29 µM, read-out: Average AC50 (Log[M]), NCGC00473217 clone F12 (Cytb A122D) (converted)
[9] = DD2, […], averaged from three independent replicates, top concentration 29 µM, read-out: Average AC50 (Log[M]), NCGC00473217 clone F06 (Cytb V259L) (converted)
[10] = DD2, […], averaged from three independent replicates, top concentration 29 µM, read-out: Average AC50 (Log[M]), NCGC00374598 clone C11 (Cytb G131S) (converted)

## CCCN1C(CC(C)C)=N[S+](=O)([O-])c2cc(NC(=O)c3sccc3F)ccc21 [NCGC00523542-01]
[1]; [6]
  AC50: 7.52e-06 M
[2]; [7]
  AC50: 1.59e-06 M
[3]; [8]
  AC50: 1.31e-06 M
[4]; [9]
  AC50: 5.43e-06 M
[5]; [10]
  AC50: 1.78e-06 M

## CCCN1C(CC(C)C)=N[S+](=O)([O-])c2cc(NC(=O)c3nccs3)ccc21 [NCGC00521040-01]
[1]; [6]
  AC50: 6.7e-06 M
[2]; [7]
  AC50: 9.29e-06 M
[3]; [8]
  AC50: 7.1e-06 M
[4]; [9]
  AC50: 1.31e-05 M
[5]; [10]
  AC50: 8.28e-07 M

## CCCN1C(CC(C)C)=N[S+](=O)([O-])c2cc(NC(=O)c3coc4ccccc34)ccc21 [NCGC00521147-01]
[1]; [6]
  AC50: 8.93e-06 M
[2]; [7]
  AC50: 7.38e-06 M
[3]; [8]
  AC50: 5.64e-06 M
[4]; [9]
  AC50: 2.24e-06 M
[5]; [10]
  AC50: 8.43e-06 M

## CCCN1C(CC(C)C)=N[S+](=O)([O-])c2cc(NC(=O)C3CCN(C)CC3)ccc21 [NCGC00521111-01]
[1]; [6]
  AC50: 1.22e-05 M
[2]; [7]
  AC50: 2.08e-05 M
[3]; [8]
  AC50: 3.77e-07 M
[4]; [9]
  AC50: 1.53e-05 M
[5]; [10]
  AC50: 1.17e-06 M

## CCCN1C(CC(C)C)=N[S+](=O)([O-])c2cc(NC(=O)c3ccc(F)cc3F)ccc21 [NCGC00523543-01]
[1]; [6]
  AC50: 3.56e-07 M
[2]; [7]
  AC50: 3.99e-06 M
[3]; [8]
  AC50: 1.93e-06 M
[4]; [9]
  AC50: 3.36e-06 M
[5]; [10]
  AC50: 2e-06 M

## CCCN1C(CC(C)C)=N[S+](=O)([O-])c2cc(NC(=O)c3cnn4cccnc34)ccc21 [NCGC00521136-01]
[1]; [6]
  AC50: 1.17e-05 M
[2]; [7]
  AC50: 1.22e-05 M
[3]; [8]
  AC50: 6.84e-06 M
[4]; [9]
  AC50: 8.28e-06 M
[5]; [10]
  AC50: 7.96e-06 M

## CCCN1C(CC(C)C)=N[S+](=O)([O-])c2cc(NC(=O)c3ccc(C)s3)ccc21 [NCGC00510977-01]
[1]; [6]
  AC50: 8.93e-06 M
[2]; [7]
  AC50: 8.61e-06 M
[3]; [8]
  AC50: 7.96e-06 M
[4]; [9]
  AC50: 1.04e-05 M
[5]; [10]
  AC50: 8.93e-06 M

## O=C1C(O)=C([C@H]2CC[C@H](c3ccc(Cl)cc3)CC2)C(=O)c2ccccc21 [Atovaquone, atovaquone, reference compound]
[1]
  susceptibility of F123L mutant compared to parental line: significantly more susceptible
[1]; DD2, NCGC00473217 selected clone, read-out: AC50 Log[M] ± SD, Cytb F123L (converted)
  AC50: 8.71e-10 M
[1]; DD2, Suppl Table 6, read-out: AC50 (mM), Dd2 Cytb F123L
  AC50: 9e-10 M
[2]; DD2, 72 h, SYBR Green 72 h, WT Dd2-B2, read-out: AC50 Log[M] ± SD, Dd2-B2 (parental line) (converted)
  AC50: 3.31e-09 M
[2]; DD2, Suppl Table 6, read-out: AC50 (mM), WT (Dd2-B2)
  AC50: 3.3e-09 M
[3]
  susceptibility of A122D mutant compared to parental line: significantly more susceptible
[3]; DD2, NCGC00473217 selected clone, read-out: AC50 Log[M] ± SD, Cytb A122D (converted)
  AC50: 5.5e-10 M
[3]; DD2, Suppl Table 6, read-out: AC50 (mM), Dd2 Cytb A122D
  AC50: 5.5e-10 M
[4]
  susceptibility of V259L variant compared to parental line: significantly less susceptible
[4]; DD2, NCGC00473217 selected clone, read-out: AC50 Log[M] ± SD, Cytb V259L (converted)
  AC50: 2.34e-08 M
[4]; DD2, Suppl Table 6, read-out: AC50 (mM), Dd2 Cytb V259L
  AC50: 2.34e-08 M
[5]
  potency in G131S mutant lines compared to parental line: potency was not compromised
[5]; DD2, NCGC00374598 selected clone, read-out: AC50 Log[M] ± SD, Cytb G131S (converted)
  AC50: 2.19e-09 M
[5]; DD2, Suppl Table 6, read-out: AC50 (mM), Dd2 Cytb G131S
  AC50: 2.2e-09 M

## CCCN1C(CC(C)C)=N[S+](=O)([O-])c2cc(NC(=O)c3ccccc3F)ccc21 [NCGC00523540-01]
[1]; [6]
  AC50: 2.72e-06 M
[2]; [7]
  AC50: 4.66e-06 M
[3]; [8]
  AC50: 2.82e-06 M
[4]; [9]
  AC50: 2.16e-06 M
[5]; [10]
  AC50: 4.48e-06 M

## CCCN1C(CC(C)C)=N[S+](=O)([O-])c2cc(NC(=O)c3cc4ccncc4[nH]3)ccc21 [NCGC00521877-01]
[1]; [6]
  AC50: 9.29e-07 M
[2]; [7]
  AC50: 2.24e-06 M
[3]; [8]
  AC50: 7.67e-07 M
[4]; [9]
  AC50: 7.67e-07 M
[5]; [10]
  AC50: 1.42e-06 M
